First: O=C(NCC(=O)N1c2ccccc2N(Cc2ccccc2)C(=O)[C@H]2CCC[C@H]21)c1ccc([N+](=O)[O-])cc1 (relative stereo)
Second: O=C(Nc1ccccc1)c1cc([N+](=O)[O-])ccc1Cl
The melting point of the first is higher: 231 to 233 °C for the first, 155 to 156 °C for the second.

`O=C1CNc2ncc(I)cc2N1Cc1cc(Cl)ccc1Cl` and `O=Cc1c[nH]c2c1ccc1c2[nH]c2cc(Cl)cc(Cl)c21` cannot be ordered by melting point: greater than 200 °C for the first, greater than 250 °C for the second.

Compared with `COc1c(C)cc2c(c1C)C(C)(C)CN2C(=O)C(C)(C)C`, `CCOc1c(C)cc([N+](=O)[O-])cc1C` is lower in melting point: 103 to 104 °C for the first, 56 °C for the second.

`O=C(O)c1ccn(C2=CC3=C(CC2)CCc2[nH]c(=O)c(=O)n(O)c23)c1` and `O=C(O)c1cc(=O)c2cc3[nH]c(=O)oc3cc2[nH]1` cannot be ordered by melting point: greater than 300 °C for the first, greater than 300 °C for the second.

First: COc1cc(C(=O)c2ncc3c(OC)cccn23)ccc1N
Second: COc1ccc2c(c1OC)CC(c1ccccc1)C=C2C#N (stereo not given)
The melting point of the first is higher: 229 °C for the first, 109 to 110 °C for the second.

Compared with `CC(C)OC1CCCC(C2NC(=O)C2C(C)O[Si](C)(C)C(C)(C)C)C1O` (stereo not given), `CC(C)(C)OC(=O)CN1C(=O)[C@@H](N[C@@H](CCC2CCCCC2)C(=O)O)COc2ccccc21` is higher in melting point: 121 to 123 °C for the first, 180 to 183 °C for the second.

Compared with `COC(=O)C(C)(C)N(OC(C)(C)C#N)C(C)(C)C`, `CC(C)(C)OC(=O)N1CCC2(CC1)CC(=O)N(O)C2=O` is higher in melting point: 78 to 85 °C for the first, 151 to 154 °C for the second.

Compared with `O=C(O)CCCOc1ccc(C2C3CC4CC(C3)CC2C4)cc1` (stereo not given), `CCOC(=O)CCc1ccc(OCCOC)cc1OCc1ccccc1` is lower in melting point: 163 to 165 °C for the first, 38 to 39 °C for the second.

First: C=CCc1c(OC)c(=O)[nH]c2cc(Cl)ccc2c1=O
Second: COC=C1C(=O)NC(=O)c2ccccc21
The melting point of the first is lower: 135 to 136 °C for the first, 260 to 261 °C for the second.

First: COCCN1C(=O)CCCc2c1ccc(Nc1ncc(Cl)c(Nc3ccc(N4CCOCC4)cc3OC)n1)c2OC
Second: COCCOc1cc2ncc(C#N)c(NC3=CC(=O)C(C)=CC3=O)c2cc1OC
The melting point of the first is lower: 136 to 138 °C for the first, 174 to 177 °C for the second.

Compared with `CCOC(=O)C(Cc1c[nH]c2c(F)cccc12)(NC=O)C(=O)OCC`, `CCC(=O)C(=O)NC(=O)[C@@H](N)Cc1ccccc1` is lower in melting point: 164 to 166 °C for the first, 121 to 123 °C for the second.

Compared with `O=C(OI(OC(=O)C(F)(F)F)C(F)(F)C(F)(F)C(F)(F)C(F)(F)C(F)(F)C(F)(F)C(F)(F)C(F)(F)F)C(F)(F)F`, `CC(Cc1ccc(-c2ncc(NC(=O)C(F)(F)F)o2)cc1)N1CC(c2cccc(Cl)c2)OC1=O` (stereo not given) is higher in melting point: 70 to 74 °C for the first, 163 to 164 °C for the second.

First: O=C(O)CO[C@@H]1COc2nc([N+](=O)[O-])cn2C1
Second: O=[N+]([O-])c1cc2nc(Cl)n(C3OC(CO)C(O)C3O)c2cc1[N+](=O)[O-] (stereo not given)
The melting point of the first is higher: 178 to 179 °C for the first, 132 to 135 °C for the second.

First: CCOC(=O)CCc1ccc(OCc2ccc(OCc3nc(-c4ccccc4)oc3C)cc2)cc1
Second: CCOc1ccc(OCc2cccc(OCc3nc(-c4ccccc4)oc3C)c2)cc1CCC(=O)O
The melting point of the first is lower: 105 to 106 °C for the first, 136 to 137 °C for the second.

Compared with `O=C(CN1CCC(Cc2ccc(F)cc2)CC1)Nc1ccc2c(c1)CC(=O)N2`, `Cc1cc2[nH]c(=O)n(C3CCN(CCCN(c4ccc(F)cc4)c4ccc(F)cc4)CC3)c2cc1C` is higher in melting point: 178 to 180 °C for the first, 219 to 220 °C for the second.

First: CNC(=O)Cn1c(-c2ccc([N+](=O)[O-])cc2)nc2cccnc21
Second: Cc1nc(-c2ccccc2)cc(-c2cccc([N+](=O)[O-])c2)c1C(=O)NCCN(C)C
The melting point of the first is higher: greater than 260 °C for the first, 143 to 145 °C for the second.

Compared with `COc1cc(CC2(C#N)c3cc(Cl)c(Cl)cc3C=CN2C(=O)c2ccccc2)cc(OC)c1OC` (stereo not given), `COc1ccc(CCc2cc3c(s2)-n2c(C)nnc2CN=C3c2ccccc2Cl)cc1` is lower in melting point: 193 to 195 °C for the first, 100 to 105 °C for the second.

First: Nc1ncnc2c1ncn2OC[C@@H](CO)OCP(=O)(O)O
Second: Cc1cc2ncnn2nc1OCCCC(C)(C)CCS(N)(=O)=O
The melting point of the first is higher: 200 to 205 °C for the first, 154 to 155 °C for the second.

First: CN(C)Cc1nc(-c2ncn3c2[C@@H]2CCN2C(=O)c2cc(F)ccc2-3)no1
Second: CCN1c2ncc([N+](=O)[O-])cc2C(=O)N(C)c2cccnc21
The melting point of the first is higher: 150 to 155 °C for the first, 148 to 149 °C for the second.

First: c1ccc2c(Sc3c4ccccc4cc4ccccc34)c3ccccc3cc2c1
Second: C(=C\c1nc(COc2ccc(CCCCn3ccnc3-c3ccccc3)cc2)co1)/c1ccccc1
The melting point of the first is higher: 257 °C for the first, 85 to 86 °C for the second.

Compared with `Cc1c2n(c(=O)[nH]c1=O)CCCS2`, `C[Si](C)(C)CCCNC(=O)n1cc(F)c(=O)[nH]c1=O` is lower in melting point: 196 to 198 °C for the first, 146 to 149 °C for the second.

First: CC(=O)NC[C@H]1CN(c2ccc(N3CCC(O)(C#N)CC3)c(F)c2)C(=O)O1
Second: CC(=O)NC[C@H]1CN(c2ccc(C(=O)c3ccc4cnc(C)cn34)cc2)C(=O)O1
The melting point of the first is lower: 99 to 100 °C for the first, 248 to 250 °C for the second.

First: C[C@@H]1Cc2cc3c(cc2C(c2ccc([N+](=O)[O-])cc2)=NN1c1cnns1)OCO3
Second: Cc1ccc(Cn2ncc(-c3ccc(S(C)(=O)=O)cc3)c(-c3ccc(F)cc3)c2=O)s1
The melting point of the first is higher: 175 to 176 °C for the first, 172 to 175 °C for the second.

Compared with `CCCCCCC(C)(C)c1ccc(C2CCCC(=O)C2)c(O)c1` (stereo not given), `COc1ccc2c(c1)c1c(n2CCC(=O)NN)CCN(C)C1` is higher in melting point: 87 °C for the first, 126 to 128 °C for the second.

First: O=Cc1cnc2sc3c(n12)CCCCCC3
Second: CN1C(=O)C2(COc3cc4c(cc32)OCCO4)c2c(NC(=O)NC3CCCCC3)cccc21 (stereo not given)
The melting point of the first is lower: 106 to 107 °C for the first, 175 to 177 °C for the second.

Compared with `COc1cccc(CNc2n[nH]c(N)c2C#N)c1`, `Cc1cc(Oc2ccc(Cl)c(C(F)(F)F)c2)ncc1N` is lower in melting point: 151 to 153 °C for the first, 105 to 107 °C for the second.

First: Cc1cc(-c2coc3ccc(-c4nnc(C)o4)cc23)ccn1
Second: Cc1nc(-c2ccc(C(F)(F)F)cc2)sc1CSc1cc(C(C)C)c(OCC(=O)O)c(C(C)C)c1
The melting point of the first is lower: 151 to 152 °C for the first, 161 to 163 °C for the second.

First: CS(=O)(=O)c1ccc(-n2nc(-c3ccc(F)cc3)cc2C(F)(F)F)cc1
Second: OCc1cccc(-c2ccc3nc(-c4ccc(Cl)cc4)cn3c2)c1
The melting point of the first is lower: 158 to 160 °C for the first, 181 to 182 °C for the second.

First: CC1=C(c2ccc(C(=O)N3Cc4cccn4Cc4ccccc43)cc2C)C(C)CCC1 (stereo not given)
Second: COc1ccc(N2CCN(c3c(C)c(C)c4c(c3C)C(c3ccsc3)C(C)(C)O4)CC2)cc1 (stereo not given)
The melting point of the first is higher: 133 to 135 °C for the first, 128 to 131 °C for the second.

Compared with `O=C(Nc1ccccc1)Nc1nc(C(O)CO)cs1` (stereo not given), `CS(=O)(=O)Nc1cccc(Nc2nc(NCc3ccccc3O)c3nc[nH]c3n2)c1` is lower in melting point: 175 to 178 °C for the first, 168 to 171 °C for the second.

First: COc1ccc(Cl)c(C)c1OC
Second: CCOC(=O)/C=C/c1ccc(OCCOC2CC2)cc1Oc1ncc(C(F)(F)F)cc1Cl
The melting point of the first is lower: 69 to 70 °C for the first, 75.4 to 75.9 °C for the second.

First: Cc1sc(-c2ccccc2)nc1COc1ccc(COc2ncccc2C#N)cc1
Second: NCC(=O)NCCCn1cc(-c2ccccc2)c2ccccc2c1=O
The melting point of the first is lower: 120 to 121 °C for the first, 141 °C for the second.

Compared with `CCCCCCCCCCCCCCCCN(CC(O)CO)C(=O)CCCCC` (stereo not given), `COC(=O)CCCCCCCC(=O)Nc1c(I)c(C(=O)O)c(I)c(N(C)C(C)=O)c1I` is higher in melting point: 38.8 °C for the first, 198 to 203 °C for the second.

Compared with `CC12CCC3C(CCC4CC(=O)CCC43C)C1CCC2C#N` (stereo not given), `CC12C=CC(=O)C=C1C(N)CC1C2CCC2(C)C(=O)CCC12` (stereo not given) is higher in melting point: 150 to 152 °C for the first, 186 to 191 °C for the second.

First: CSc1cc(C)nc(SC)c1NC(=O)CCCCCCCCSc1nc2ccccc2o1
Second: CCCCCc1cn(CCCC)c(=O)n1Cc1ccc(-c2ccccc2-c2nnn[nH]2)nc1
The melting point of the first is lower: 123 to 124 °C for the first, 176 to 177 °C for the second.
